Measurements taken from patent US20060134774A1, “Detection of protease enzymes” (Marligen Biosciences, Inc., priority 2002, published 2006).

Experiments:
Type in all cases: cell-based
[1] = target: T1, caspase-3 (Homo sapiens, UniProt P42574); experiment: Single-plex assay for active caspase-3 (bead capture of caspase-3/biotin-DEVD-FMK complex from treated cells); details: human myeloma cell line KAS, 8 hours, 5 uM camptothecin with 1 uM biotin-DEVD-FMK, vs. culture with inhibitor only
T1 construct: endogenous in cells; host or cells: human myeloma cell line KAS
T1 sequence (P42574 29-175 limits assumed): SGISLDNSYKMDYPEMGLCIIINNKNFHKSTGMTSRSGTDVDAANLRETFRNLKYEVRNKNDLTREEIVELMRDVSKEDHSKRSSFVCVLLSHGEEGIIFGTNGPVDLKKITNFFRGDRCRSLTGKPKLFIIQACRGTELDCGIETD
T1 sequence (P42574 176-277 limits assumed): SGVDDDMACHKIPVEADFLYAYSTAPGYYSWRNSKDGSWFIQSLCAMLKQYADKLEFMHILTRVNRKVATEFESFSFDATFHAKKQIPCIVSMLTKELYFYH
Method: Preparation of Amine-Reactive Beads
Luminex beads were dispersed by vortexing for 15 seconds followed by sonication in a water bath for 2 minutes. To wash, beads were pelleted by centrifugation for 2 minutes at 12,000×g in a microcentrifuge and then resuspended in 100 ul of water. Beads were pelleted again, resuspended in 80 ul of activation buffer (100 mM sodium phosphate, monobasic pH 6.3), vortexed briefly and sonicated for 30 seconds. Reactive n-hydroxysuccinimide (NHS) esters on the bead surface were prepared by adding 10 ul of 50 mg/ml Sulfo-NHS solution (Pierce, Rockland, Ill.) and 10 ul of 50 mg/ml 1-Ethyl-3-[3-dimethylaminopropyl]carbodiimide Hydrochloride (EDC) to the bead suspension, briefly vortexing, and rotating for 20 minutes in the dark. […]
Human myeloma cell line KAS was cultured in RPMI+10% FBS at 37° C. in the presence of 5% CO2. […] After three washes, the cell pellet was vortexed in lysis buffer containing 50 mM Tris-HCl pH 7.5, 150 mM NaCl, 1 mM EDTA, 0.5% NP40, 0.5% Triton X-100 and protease inhibitors (5 ug/ml leupeptin, 2 ug/ml pepstatin A, 1 mM PMSF (phenyl methyl sulfonyl […]). Lysates were stored overnight at −80° C., thawed on ice, vortexed, and spun at 4° C. for 1 hour at 12,000×g in a micro-centrifuge. Protein concentrations in the cleared supernatants were determined spectrophotometrically using Bradford reagent prior to storage at −80° C. […]

[2] = target: T1, caspase-3; experiment: Multiplex caspase assay (antibody-coated bead array), caspase-3; details: myeloma cell line Kas, 8 hours camptothecin + biotin-DEVD-FMK vs. biotin-DEVD-FMK alone
Method: (§1) Using the method described in example 1 above Luminex bead sets (colors) 27, 29, and 31 are coupled to antibodies for caspase-3, caspase-7, and caspase 9 respectively. Immediately before using, beads are vortexed for 30 seconds and sonicated for 2 minutes to disperse. Beads are then mixed to provide a 1000 bead/ul (each color) suspension with equivalent representation of each bead set. Cell lysate was prepared from myeloma cell line Kas as describe in example 1. One culture was treated with biotinylated caspase inhibitor biotin-DEVD-FMK for 8 hours and a second culture was treated for 8 hours with the apoptosis inducer camptothecin and biotinylated caspase inhibitor, biotin-DEVD-FMK. A portion of the multiplex bead suspension (2 ul) was incubated with 50 ul of each sample of cell extract diluted to 10 ug/ml in assay buffer (50 mM Tris pH 7.5, 100 mM NaCl, 0.05% tween-20 and 0.1% BSA). Following a 1 hour incubation while shaking in the dark, beads are washed with 100 ul of assay buffer using a filterplate comprising a 1.2 micron PVDF membrane (Millipore). Beads are resuspended in 50 ul of assay buffer containing 2 ug/ml streptavidin-PE conjugate (Pierce) and shaken in the dark for an additional 30 minutes. […] The presence of labeled caspase enzymes on bead surfaces was detected using the Luminex 100 instrumentation. […]

[3] = target: T2, caspase-7 (Homo sapiens, UniProt P55210); experiment: Multiplex caspase assay (antibody-coated bead array), caspase-7; details: myeloma cell line Kas, 8 hours camptothecin + biotin-DEVD-FMK vs. biotin-DEVD-FMK alone
T2 construct: endogenous in cells; host or cells: human myeloma cell line KAS
T2 sequence (P55210 24-198 limits assumed): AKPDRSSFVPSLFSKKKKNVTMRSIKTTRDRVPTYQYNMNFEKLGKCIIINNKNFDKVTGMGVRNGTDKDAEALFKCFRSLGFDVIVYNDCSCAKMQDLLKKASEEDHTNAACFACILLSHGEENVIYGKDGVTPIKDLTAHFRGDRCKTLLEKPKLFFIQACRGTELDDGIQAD
T2 sequence (P55210 207-303 limits assumed): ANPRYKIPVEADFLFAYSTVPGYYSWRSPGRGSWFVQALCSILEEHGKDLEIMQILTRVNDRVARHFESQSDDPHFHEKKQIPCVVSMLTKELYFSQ
Method: as §1

[4] = target: T3, caspase 9 (Homo sapiens, UniProt P55211); experiment: Multiplex caspase assay (antibody-coated bead array), caspase 9; details: myeloma cell line Kas, 8 hours camptothecin + biotin-DEVD-FMK vs. biotin-DEVD-FMK alone
T3 construct: endogenous in cells; host or cells: human myeloma cell line KAS
T3 sequence (P55211 1-416): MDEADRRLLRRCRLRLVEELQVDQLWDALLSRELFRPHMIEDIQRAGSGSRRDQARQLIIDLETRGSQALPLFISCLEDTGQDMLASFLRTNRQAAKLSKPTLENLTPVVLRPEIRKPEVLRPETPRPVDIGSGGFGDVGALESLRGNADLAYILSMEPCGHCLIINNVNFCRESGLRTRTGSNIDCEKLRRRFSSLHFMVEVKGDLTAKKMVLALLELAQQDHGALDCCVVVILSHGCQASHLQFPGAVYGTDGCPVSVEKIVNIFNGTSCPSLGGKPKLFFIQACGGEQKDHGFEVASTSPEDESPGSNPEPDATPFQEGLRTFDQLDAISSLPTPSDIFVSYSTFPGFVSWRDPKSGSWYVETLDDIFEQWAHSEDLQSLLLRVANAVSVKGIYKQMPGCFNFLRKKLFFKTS
Method: as §1

[5] = target: T1, caspase-3; experiment: Competitive multiplex inhibitor assay, caspase-3; details: myeloma cell line Kas, 8 hours camptothecin + biotin-DEVD-FMK
Source text: (§2) In another aspect of the invention a labeled inhibitor and a non-labeled inhibitor are both added to the sample. The non-labeled inhibitor competes with the labeled inhibitor for binding to proteases. With this mode of the invention, new inhibitors may be screened for specificity and the binding constants of new inhibitors may be determined by determining the amount of unlabeled inhibitor necessary to reduce the binding of the labeled inhibitor by a certain amount. Using the methods described in example 2 above Luminex bead sets (colors) 27, 29, and 31 are coupled to antibodies for caspase-3, caspase-7, and caspase 9 respectively. Immediately before using, beads are vortexed for 30 seconds and sonicated for 2 minutes to disperse. Beads are then mixed to provide a 1000 bead/ul (each color) suspension with equivalent representation of each bead set. Cell lysate is prepared from the myeloma cell line Kas as described in Example 1 with the exception that an additional portion of cells is treated for 8 hours with camptothecin, the biotinylated caspase inhibitor biotin-DEVD-FMK and an equal amount of an experimental caspase inhibitor called Mx435. The MX435 inhibitor is not labeled with biotin, and therefore, it competes with the labeled inhibitor for binding to each caspase. […] The presence of labeled caspase enzymes on bead surfaces is detected using the Luminex 100 instrumentation. […]

[6] = target: T2, caspase-7; experiment: Competitive multiplex inhibitor assay, caspase-7; details: myeloma cell line Kas, 8 hours camptothecin + biotin-DEVD-FMK
Source text: as §2

[7] = target: T3, caspase 9; experiment: Competitive multiplex inhibitor assay, caspase 9; details: myeloma cell line Kas, 8 hours camptothecin + biotin-DEVD-FMK
Source text: as §2

With `CC[C@@]1(O)C(=O)OCc2c1cc1n(c2=O)Cc2cc3ccccc3nc2-1` [camptothecin] the “caspase 3 activity: signal of biotin-labeled inhibitor bound to captured caspase 3 (FIG. 10)” value [1] was “induced”, the “induction of caspase 3 activity (median fluorescent intensity, FIG. 11)” value [2] was “induced the most” and the “induction of caspase 7 activity (median fluorescent intensity, FIG. 11)” value [3] was “induced”. For the same compound, the “induction of caspase 9 activity (median fluorescent intensity, FIG. 11)” value [4] was “induced the least”, the “induction of caspase 3 activity by camptothecin (median fluorescent intensity, FIG. 12)” value [5] was “induced” and the “induction of caspase 7 activity by camptothecin (median fluorescent intensity, FIG. 12)” value [6] was “induced”. For the same compound, the “induction of caspase 9 activity by camptothecin (median fluorescent intensity, FIG. 12)” value [7] was “induced”.
